Data reported in a melting point compilation (Tetko et al.; mined from patent text by program, amines drawn as free bases though some values may be those of a salt).

With CCOc1ccc2c(c1)n(C1CCCCC1)c(=O)n2S(=O)(=O)c1ccc([N+](=O)[O-])cc1OC the melting point was 162 °C.
O=C(O)CCc1oc(-n2ccnc2CO)nc1-c1ccc(Cl)cc1 showed a melting point of 171 to 173 °C.
For Cc1ccc2c(c1)c1cc(C(=O)N3CCOCC3)sc1n2C, the melting point was 158 to 160 °C.
Work on O=C(O)COc1ccc2c(c1)C[C@H](NC[C@H](O)c1cccc(Cl)c1)CCC2 yielded a melting point of 265 to 266 °C.
Compound CCCCCCCCSc1nc(NCC(C)(C)c2cc(C(C)(C)C)c(O)c(C(C)(C)C)c2)nc(NC2CC(C)(C)NC(C)(C)C2)n1 has a melting point of 130 °C.
For CC(C)(C)OCCOc1cc(NC(=O)OC(C)(C)C)c([N+](=O)[O-])cc1I, the melting point was 113 to 116 °C.
Work on O=C(COCc1ccccc1)NC(C(=O)Nc1n[nH]c(=S)s1)c1ccccc1 (stereo not drawn) yielded a melting point of 96 to 100 °C.
Work on COC(=O)C(CCSC)N(C(=O)OC(C)(C)C)C(=O)c1ccc(N)c(C)c1 (stereo not drawn) yielded a melting point of 163 to 165 °C.
COc1ccc(C(=O)Nc2ccc(C(=O)N3CCCC3)cc2)cc1C12CC3CC(CC(C3)C1)C2 showed a melting point of 239 to 242 °C.
With CC(=O)O[C@@H](C)C(=O)Nc1c(C(=O)c2ccccc2)[nH]c2cc(Cl)ccc12 the melting point was 80 to 85 °C.
For O=[N+]([O-])c1ccc(Cl)c(NC(=S)NCCO)c1, the melting point was 158 °C.
For CC(Oc1cc(Oc2ccc(C(F)(F)F)cc2Cl)ccc1[N+](=O)[O-])C(=O)NCC1CCCO1 (stereo not drawn), the melting point was 102 to 104 °C.
With CN1CCN(c2c(Cl)cc3c(=O)c(C(=O)O)cn(C4CC4)c3c2Cl)CC1 the melting point was > 300 °C.
In the case of Cc1ccc(F)cc1C(=O)Nc1ccc(C(=O)N2Cc3ccccc3Oc3ncccc32)cn1, the melting point is reported as 187 to 189 °C.
Work on C#CCN1CCC(C(C)(C)CO)CC1 yielded a melting point of 78 to 82 °C.
CCOC(=O)COc1coc(CCl)cc1=O gave a melting point of 98 to 100 °C.
In the case of COc1ccccc1C(=O)N1CCN(CC2(C)Cc3c(C)c(N)c(C)c(C)c3O2)CC1 (stereo not drawn), the melting point is reported as 128 to 131 °C.
For Cc1cccc(C2COc3cc(O)c(O)cc3C2)c1 (stereo not drawn), the melting point was 146 to 148 °C.
OC(COc1ccc(Cl)cc1Cl)(COc1ccc(Cl)cc1Cl)Cn1cncn1 gave a melting point of 136 °C.
Work on CCN(c1ccc(SC)cc1[N+](=O)[O-])S(=O)(=O)c1ccc(C)cc1 yielded a melting point of 135 to 136 °C.
For CCCC(CCC)n1c(CC)nc2c1c(=O)n(C)c(=O)n2-c1c(OC)ccnc1C, the melting point was 124 to 126 °C.
For CN(C)C(=Nc1ccccc1)N(C)N1C(=O)c2ccccc2C1=O, the melting point was 146 to 148 °C.
CCOC(=O)CCCCCc1c(O)c2cccnc2n(-c2ccccc2)c1=O gave a melting point of 167 to 168 °C.
CCOC(=O)C(C)c1ccc(CC2CCCCC2=NO)cc1 (stereo not drawn) showed a melting point of 102 to 104 °C.
For Cc1nccn1-c1nc(-c2ccc(Cl)cc2)c(CCCN2C(=O)CNC2=O)o1, the melting point was 197 to 198 °C.
c1ccc(NC2=NC3CCCc4cccc(c43)N2)cc1 (stereo not drawn) showed a melting point of 233 to 235 °C.
For CCSc1cc2ncc(C#N)c(Nc3cc(OC)c(Cl)cc3Cl)c2cc1OC, the melting point was 212 to 214 °C.
CC(=O)NCCn1ccc2c1-c1ccccc1CC2 showed a melting point of 95 to 96 °C.
In the case of COc1ccc(-c2c(C)ncc(C#N)c2Nc2ccc3[nH]ccc3c2C)cc1OC, the melting point is reported as 202 to 203 °C.
For CCOC(=O)c1ccc(CCC(=O)O)cc1, the melting point was 108 to 110 °C.
With COc1ccc(S(=O)(=O)N(CCC(=O)N2CCC(C(=O)O)CC2)C(CC(C)C)C(=O)NO)cc1 (stereo not drawn) the melting point was 118 to 120 °C.
With CCCCNc1nc(N)nc(-c2ccc(Cl)c(Cl)c2)n1 the melting point was 176 to 179 °C.
Work on CC(C)=CCn1ccnc1[N+](=O)[O-] yielded a melting point of 48 to 49 °C.
In the case of COC(=O)CCC(NC(=O)Nc1cccc(C)c1)C(=O)O (racemic), the melting point is reported as 127 °C.
Compound CN(CCN(CCC12CC3CC(CC(C3)C1)C2)C(=O)NCCCc1ccncc1)S(C)(=O)=O has a melting point of 165 to 167 °C.
O=C(O)COc1cccc2c(CCS(=O)(=O)C(c3ccccc3)c3ccccc3)coc12 showed a melting point of 177 to 179 °C.
Compound COC(=O)c1[nH]c(=O)[nH]c(=O)c1[N+](=O)[O-] has a melting point of 229 to 230 °C.
In the case of COc1cc(C)nc(OC)c1NC(=O)CN1CCN(CCSc2nc3ccccc3o2)CC1, the melting point is reported as 113 to 115 °C.
